The source of these data is a melting point compilation (Tetko et al.; mined from patent text by program, amines drawn as free bases though some values may be those of a salt).

For orientation: melting point means the temperature of the solid-liquid transition.

For the molecule `COc1ccc(CN(Cc2ccc(OC)cc2)c2nc(-c3ccccc3)c(-c3ccc(=O)n(C(C)C)n3)nc2C#N)cc1`, the melting point is 207 to 209 °C.

`CC(C)(C)OC(=O)N[C@H]1CC[C@H](ON2C(=O)c3ccccc3C2=O)CC1` displayed a melting point of 134 to 135 °C.

With `COC(C)CCOc1c(-c2ccc(S(C)(=O)=O)cc2)cnn(-c2ccc(F)c(F)c2)c1=O` (stereo unspecified), the melting point was 99 to 101 °C.

`CCOC(=O)C1=C(C)NC(C)=C(C(=O)OCCC#N)C1c1ccccc1/C=C/C(=O)OC(C)(C)C` (stereo unspecified) showed a melting point of 168 to 169 °C.

Consider `CS(=O)(=O)c1ccc(-c2sc(-c3ccccc3Cl)nc2-c2cccs2)cc1`, for which the melting point is 171 to 174 °C.

In the case of `CCOC(=O)C(=O)Nc1ncccn1`, the melting point was 96 to 99 °C.

Turning to `COc1ccc(-c2cnc(-c3ccncc3)o2)cc1`, the melting point is 105 to 107 °C.

With `N#CC(CBr)c1ccccc1` (stereo unspecified), the melting point amounted to 63 °C.

`CCC(CC)(COc1nn2nc(C)nc2cc1C)CS(N)(=O)=O` came in with a melting point of 221 to 222 °C.

Molecule `CCOCc1nc2c(N)nc3cc(-c4cccc(C(=O)N5CCOCC5)c4)ccc3c2n1CC(C)(C)O` had a melting point of 152 to 154 °C.

In the case of `O=C(O)c1ccc(C(=O)O)c(-c2nc3ccccc3s2)c1`, the melting point was in the range of 287 to 288 °C.

With `Nn1c(=O)cc2n(C3CC3)c3cc(N4CCNCC4)c(F)cc3n2c1=O`, the melting point was 232 to 234 °C.

In the case of `CN(C(=O)c1cccc(C(=C2CC3CCC(C2)N3C)c2ccccc2)c1)c1cccc(F)c1`, the melting point was 122 to 125 °C.

Molecule `CCCn1c(OCC2CC2(Cl)Cl)nc2sc(Cl)cc2c1=O` (stereo unspecified) came in with a melting point of 94 to 96 °C.

`CC(=O)C(Cc1ccc(O)cc1)C(C)=O` gave a melting point of 93 to 94.5 °C.

With `CCOC(=O)c1cnc2cc(Cl)ccc2c1Cl`, the melting point lay in the range of 81 to 82 °C.

The molecule `C=CCC1(C(C)CC(=O)OCC)C(=O)NC(=O)NC1=O` (stereo unspecified) came in with a melting point of 114 °C.

`CCOC(=O)c1c(O)c2cccnc2n(CCc2ccccc2)c1=O` registered a melting point of 121 to 123 °C.

`CCOC(=O)Cc1cc2c(s1)CCN(C(=O)[C@H](Cc1ccccc1)NC(=O)c1ccc(C(=N)N)cc1)C2` showed a melting point of 173 to 175 °C.

As for `CC(C)CCOc1ccc(Cl)c2c(=O)c3ccccc3sc12`, the melting point lay within 96 to 97 °C.

As to `CCOC(=O)c1cc2cc(C=CC(=O)c3ccc(C)cc3)cc(C(C)CC)c2oc1=O` (stereo unspecified), the melting point fell in the range of 155 to 156 °C.

In turn, `CCC12CCC3C4CCC(=O)C=C4CCC3C1CCC2O` (stereo unspecified) registered a melting point of 147 to 149 °C.

`CS(=O)(=O)c1ccc(C2=C(c3ccc(-c4cccs4)cc3)C(=O)OC2)cc1` registered a melting point of 198 to 201 °C.

The molecule `CCCCCCS(=O)(=O)c1nn2c(=O)cc(-c3ccccc3)nc2s1` had a melting point of 131 to 134 °C.

In the case of `O=C1N(Cc2ccccn2)c2ccccc2C12COc1cc3c(cc12)OCC3` (stereo unspecified), the melting point lay within 198 to 200 °C.

For `CCCOCCCCOCCCCCCNCC(O)c1cc(Cl)c(N)c(Cl)c1` (stereo unspecified), the melting point lay in the range of 51 to 53 °C.

Regarding `CC(C)N1C(=O)C(=O)NC1=NC(=N)Nc1ccc(Cl)c(Cl)c1`, the melting point came to 230 °C.

`CCCCCN1C(=O)C2(COc3cc4c(cc32)OCO4)c2c(Cl)ccc(Cl)c21` (stereo unspecified) displayed a melting point of 106 to 108 °C.

Turning to `CCOc1ccc(CCNC(=O)C(N)=O)cc1OCC`, the melting point lay within 168 to 169 °C.

The molecule `CCNc1cccc(-c2ccnc3c(C(=O)c4cccs4)cnn23)c1` showed a melting point of 154 to 155 °C.

`CCOC(=O)c1cnc2c(c1O)CCCCCC2` returned a melting point of 219 to 222 °C.

`Cc1nc2c3c(ccc2n1C)[C@@H](O)[C@H](O)[C@@H](c1ccccc1)O3` returned a melting point of 262 °C.

Molecule `COC(=O)CCCCCCC1=CCC(O)C1=O` (stereo unspecified) had a melting point of 62.5 to 63.5 °C.

The molecule `O=S(=O)(Nc1ccc(Cl)c(F)c1)c1ccccc1` showed a melting point of 115 to 116 °C.

For `Cc1cc(F)ccc1-c1nc(NC2CCCCC2)nc2c1CCC(=O)N2c1ccccc1F`, the melting point was 181 to 182 °C.

With `CCCCc1cc(C=CC(=O)OC)c[nH]1`, the melting point was in the range of 65 to 67 °C.
